Assay results: paper PMC11984407, “A natural small molecule isoginkgetin alleviates hypercholesterolemia and atherosclerosis by targeting ACLY” (Theranostics, 2025)

Legend:
[1] = system: Srebf1c and Fasn mRNA; assay: RT-qPCR of lipid synthesis genes after ACLY knockdown in AML12 and Huh7 cells; format: cell-based; settings: 5 µM, 50 µM PA, 12 h
Protocol: Total RNA was extracted from cultured cells or animal tissue using RNeasy kits (RN001-50Rxns, YiShan, Shanghai, China). Subsequently, cDNA was generated using a Takara Reverse Transcription Kit (RR037B, Takara, Kyoto, Japan). Subsequently, quantitative real-time polymerase chain reaction (RT-qPCR) assays were conducted using ChamQ SYBR qPCR Master Mix (Q311-02, Vazyme, Nanjing, China), following the reverse transcription. The Roche LC96 real-time PCR detection system was employed for the detection of results, with glyceraldehyde-3-phosphate dehydrogenase (GAPDH) serving as the loading control for the quantification of mRNA levels. The fold change relative to the respective controls was determined using the 2^(^-ΔΔCt) method. Primers were designed using the PrimerQuest software and subsequently synthesised by Sangon Biotech (Shanghai, China).

[2] = system: Ldlr-/- hamsters; assay: High cholesterol diet-fed Ldlr-/- hamsters; format: in vivo, hamster
Protocol: Syrian golden hamsters with a deficiency in the low-density lipoprotein receptor (Ldlr) gene were generated using the clustered regularly interspaced short palindromic repeats (CRISPR) and CRISPR-associated protein 9 (Cas9) gene editing system, as previously described. Male Ldlr^-/- hamsters at 8-week-old were randomly divided into three groups. The animals were administered with vehicle, ISOGK (2 mg/kg/day), or ISOGK (5 mg/kg/day) for a period of four weeks. The hamsters were maintained on a 14-h light/10-h dark cycle at 24 °C and were fed a 1.25% high cholesterol diet. Unless otherwise stated, the hamsters were fasted for 12 h prior to euthanasia. All experiments were conducted in accordance with the principles of experimental animal care (NIH publication no. 85-23, revised 1996) and were approved by the Animal Care and Use Committee of Peking University (approval number LA2022-147).
Plasma levels of TC, TG, LDL-C, and high-density lipoprotein cholesterol (HDL-C) were determined following the manufacturer's instructions. Liver tissues (30-40 mg) were homogenized in 0.5 mL of cold PBS for hepatic TG and cholesterol measurement. A 0.4 mL homogenate was combined with 1.4 mL of a CHCl3/CH3OH mixture (2:1, v/v) and shaken overnight at room temperature. Following centrifugation at 2,500 × g for a period of 10 min, the organic phase was meticulously transferred and permitted to air-dry. The residual organic material was then reconstituted in 800 μL of ethanol containing 1% Triton X-100, whereby the ethanol served to solubilize the material.

[3] = system: primary mouse hepatocytes; assay: De novo lipogenesis in vitro, [1,2-14C]-acetate incorporation; format: cell-based; settings: 2.5 μmol/L and 5 μmol/L, 4 h
Protocol: Hepatocytes were seeded in 6-well plates at a density of 6 x 10^5 cells per well. They were exposed to various compounds along with [1,2-^14C]-acetate (0.1 μCi per well) for specified durations. Following treatment, the cells underwent washing with cold PBS and were lysed in 0.4 to 0.6 mL of 0.5 M KOH. The saponification process at 95 °C for 3 h with 0.4 mL of KOH (in 20% methanol solution) enabled the separation of cholesterol and fatty acids. Cholesterol, being nonpolar, was extracted using 0.5 mL of petroleum ether in three separate instances. In comparison, polar fatty acids were extracted with 0.5 mL of petroleum ether after adding 0.2 mL of H2O and 0.4 mL of 5 M H2SO4 in three rounds. The petroleum ether extracts were left to air dry at room temperature overnight. The radioactivity of the resultant products was quantified using a liquid scintillation counter.

COc1ccc(-c2cc(=O)c3c(O)cc(O)c(-c4cc(-c5cc(=O)c6c(O)cc(O)cc6o5)ccc4OC)c3o2)cc1 [ISOGK, Isoginkgetin]
mRNA expression of Srebf1c and Fasn following ACLY knockdown [1]: did not demonstrate a further reduction
lipid accumulation in aortic sinus (Oil Red O) [2]: significantly reduced lipid accumulation
lipid accumulation in liver tissues (Nile Red) [2]: significantly reduced lipid accumulation
reduction in hepatic TC vs vehicle ([2]; 2 mg/kg/day i.p.): 25.89%
reduction in hepatic TC vs vehicle ([2]; 5 mg/kg/day i.p.): 35.75%
decrease in serum TG levels (Figure 5B) ([2]; high dose 5 mg/kg/day): 61.32%
decrease in serum non-HDL-C ([2]; high dose 5 mg/kg/day): 51.76%
reduction in serum TC (Figure 5C) ([2]; high dose 5 mg/kg/day): 52.15%
reduction in serum TG (Figure 5C) ([2]; high dose 5 mg/kg/day): 51.38%
reduction of aortic plaque area (Oil Red O) vs vehicle ([2]; high-dose 5 mg/kg/day): 29.85%
serum HDL-C levels ([2]; low and high doses): without affecting HDL-C levels
decrease in serum TG levels (Figure 5B) ([2]; low dose 2 mg/kg/day): 47.57%
decrease in serum non-HDL-C ([2]; low dose 2 mg/kg/day): 28.16%
reduction in serum TC (Figure 5C) ([2]; low dose 2 mg/kg/day): 28.72%
reduction in serum TG (Figure 5C) ([2]; low dose 2 mg/kg/day): 47.99%
reduction of aortic plaque area (Oil Red O) vs vehicle ([2]; low-dose 2 mg/kg/day): 21.74%
incorporation of [1,2-14C]-acetate into fatty acids and cholesterol [3]: inhibition of lipogenesis
